According to ChEMBL document CHEMBL1201861, “Genomics of Drug Sensitity in Cancer screening data, Wellcome Trust Sanger Institute”:

What was measured:
NCI-H441 = assay: cells; assay type: functional, cell-based, Homo sapiens; settings: Homo sapiens, NCI-H441;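 note: growth inhibition of NCI-H441 cells, read out with a cell viability assay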
Description: SANGER: Inhibition of human NCI-H441 cell growth in a cell viability assay.

D-392MG = assay: cells; assay type: functional, cell-based, Homo sapiens; settings: Homo sapiens, D-392MG
NCI-H2170 = assay: cells; assay type: functional, cell-based, Homo sapiens; settings: Homo sapiens, NCI-H2170;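 note: cell viability assay measuring growth inhibition of human NCI-H2170 cancer cells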
Description: SANGER: Inhibition of human NCI-H2170 cell growth in a cell viability assay.

BL-41 = assay: cells; assay type: functional, cell-based, Homo sapiens; settings: Homo sapiens, BL-41;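 note: growth inhibition of human BL-41 cells, read out with a cell viability assay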
Description: SANGER: Inhibition of human BL-41 cell growth in a cell viability assay.

KINGS-1 = assay: cells; assay type: functional, cell-based, Homo sapiens; settings: Homo sapiens, KINGS-1;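 note: cell viability assay measuring suppression of KINGS-1 cell growth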
Description: SANGER: Inhibition of human KINGS-1 cell growth in a cell viability assay.

RVH-421 = assay: cells; assay type: functional, cell-based, Homo sapiens; settings: Homo sapiens, RVH-421
Description: SANGER: Inhibition of human RVH-421 cell growth in a cell viability assay.

NCCIT = assay: SANGER: Inhibition of human NCCIT cell growth in a cell viability assay.; assay type: functional, cell-based; settings: Homo sapiens, NCCIT
EW-13 = assay: cells; assay type: functional, cell-based, Homo sapiens; settings: Homo sapiens, EW-13;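 note: growth inhibition of EW-13 cells, read out with a cell viability assay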
Description: SANGER: Inhibition of human EW-13 cell growth in a cell viability assay.

KALS-1 = assay: cells; assay type: functional, cell-based, Homo sapiens; settings: Homo sapiens, KALS-1;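 note: growth inhibition of KALS-1 cells, determined with a cell viability assay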
Description: SANGER: Inhibition of human KALS-1 cell growth in a cell viability assay.

SK-N-DZ = assay: cells; assay type: functional, cell-based, Homo sapiens; settings: Homo sapiens, SK-N-DZ;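 note: growth inhibition of the cancer cell line, read out through a viability assay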
Description: SANGER: Inhibition of human SK-N-DZ cell growth in a cell viability assay.

BCPAP = assay: cells; assay type: functional, cell-based, Homo sapiens; settings: Homo sapiens, BCPAP;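 note: growth inhibition of BCPAP cells, read out in a cell viability assay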
Description: SANGER: Inhibition of human BCPAP cell growth in a cell viability assay.

BFTC-909 = assay: cells; assay type: functional, cell-based, Homo sapiens; settings: Homo sapiens, BFTC-909
Description: SANGER: Inhibition of human BFTC-909 cell growth in a cell viability assay.

SW1463 = assay: cells; assay type: functional, cell-based, Homo sapiens; settings: Homo sapiens, SW1463;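 note: growth inhibition of SW1463 cells, determined with a cell viability assay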
Description: SANGER: Inhibition of human SW1463 cell growth in a cell viability assay.

UACC-62 = assay: cells; assay type: functional, cell-based, Homo sapiens; settings: Homo sapiens, UACC-62;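 note: growth inhibition of human UACC-62 cells, read out by a cell viability assay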
Description: SANGER: Inhibition of human UACC-62 cell growth in a cell viability assay.

LB1047-RCC = assay: cells; assay type: functional, cell-based, Homo sapiens; settings: Homo sapiens, LB1047-RCC
Description: SANGER: Inhibition of human LB1047-RCC cell growth in a cell viability assay.

KG-1 = assay: cells; assay type: functional, cell-based, Homo sapiens; settings: Homo sapiens, KG-1;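 note: growth inhibition of KG-1 cells, read out by a cell viability assay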
Description: SANGER: Inhibition of human KG-1 cell growth in a cell viability assay.

HCE-4 = assay: cells; assay type: functional, cell-based, Homo sapiens; settings: Homo sapiens, HCE-4;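 note: cell viability assay measuring inhibition of growth in the human HCE-4 cell line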
Description: SANGER: Inhibition of human HCE-4 cell growth in a cell viability assay.

SK-MEL-30 = assay: cells; assay type: functional, cell-based, Homo sapiens; settings: Homo sapiens, SK-MEL-30;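 note: growth inhibition of SK-MEL-30 cells, determined with a cell viability assay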
Description: SANGER: Inhibition of human SK-MEL-30 cell growth in a cell viability assay.

CAL-33 = assay: cells; assay type: functional, cell-based, Homo sapiens; settings: Homo sapiens, CAL-33;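 note: growth inhibition of CAL-33 cells, read out with a cell viability assay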
Description: SANGER: Inhibition of human CAL-33 cell growth in a cell viability assay.

L-363 = assay: cells; assay type: functional, cell-based, Homo sapiens; settings: Homo sapiens, L-363
Description: SANGER: Inhibition of human L-363 cell growth in a cell viability assay.

MG-63 = assay: cells; assay type: functional, cell-based, Homo sapiens; settings: Homo sapiens, MG-63;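 note: growth inhibition of human MG-63 cells, read out with a cell viability assay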
Description: SANGER: Inhibition of human MG-63 cell growth in a cell viability assay.

SNB-75 = assay: cells; assay type: functional, cell-based, Homo sapiens; settings: Homo sapiens, SNB-75;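 note: cell viability assay measuring growth inhibition of human SNB-75 cells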
Description: SANGER: Inhibition of human SNB75 cell growth in a cell viability assay.

NCI-H358 = assay: cells; assay type: functional, cell-based, Homo sapiens; settings: Homo sapiens, NCI-H358;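 note: growth inhibition of NCI-H358 human cells, read out with a cell viability assay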
Description: SANGER: Inhibition of human NCI-H358 cell growth in a cell viability assay.

MC116 = assay: cells; assay type: functional, cell-based, Homo sapiens; settings: Homo sapiens, MC116;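 note: growth inhibition of MC116 cells, read out with a cell viability assay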
Description: SANGER: Inhibition of human MC116 cell growth in a cell viability assay.

M14 = assay: cells; assay type: functional, cell-based, Homo sapiens; settings: Homo sapiens, M14;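 note: growth inhibition of M14 cells, read out with a cell viability assay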
Description: SANGER: Inhibition of human M14 cell growth in a cell viability assay.

ES7 = assay: cells; assay type: functional, cell-based, Homo sapiens; settings: Homo sapiens, ES7;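 note: growth inhibition of cultured human ES7 cells, read out as cell viability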
Description: SANGER: Inhibition of human ES7 cell growth in a cell viability assay.

NCI-H1623 = assay: cells; assay type: functional, cell-based, Homo sapiens; settings: Homo sapiens, NCI-H1623;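 note: cell viability assay used as the read-out for growth inhibition of NCI-H1623 cells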
Description: SANGER: Inhibition of human NCI-H1623 cell growth in a cell viability assay.

ACHN = assay: cells; assay type: functional, cell-based, Homo sapiens; settings: Homo sapiens, ACHN;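 note: cell viability read-out used to gauge how strongly growth of human ACHN cells is suppressed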
Description: SANGER: Inhibition of human ACHN cell growth in a cell viability assay.

SNU-423 = assay: cells; assay type: functional, cell-based, Homo sapiens; settings: Homo sapiens, SNU-423
Description: SANGER: Inhibition of human SNU-423 cell growth in a cell viability assay.

LB771-HNC = assay: cells; assay type: functional, cell-based, Homo sapiens; settings: Homo sapiens, LB771-HNC;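 note: growth inhibition of LB771-HNC human cells, read out with a cell viability assay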
Description: SANGER: Inhibition of human LB771-HNC cell growth in a cell viability assay.

SK-PN-DW = assay: cells; assay type: functional, cell-based, Homo sapiens; settings: Homo sapiens, SK-PN-DW;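 note: growth inhibition measured with a viability assay on these cells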
Description: SANGER: Inhibition of human SK-PN-DW cell growth in a cell viability assay.

KYSE-270 = assay: cells; assay type: functional, cell-based, Homo sapiens; settings: Homo sapiens, KYSE-270;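 note: cell growth inhibition measured with a viability assay in the human KYSE-270 line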
Description: SANGER: Inhibition of human KYSE-270 cell growth in a cell viability assay.

NCI-H719 = assay: cells; assay type: functional, cell-based, Homo sapiens; settings: Homo sapiens, NCI-H719;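 note: growth inhibition of the cultured cell line, read out with a viability assay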
Description: SANGER: Inhibition of human NCI-H719 cell growth in a cell viability assay.

COLO-678 = assay: cells; assay type: functional, cell-based, Homo sapiens; settings: Homo sapiens, COLO-678
Description: SANGER: Inhibition of human COLO-678 cell growth in a cell viability assay.

HuP-T4 = assay: cells; assay type: functional, cell-based, Homo sapiens; settings: Homo sapiens, HuP-T4;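 note: cell viability assay measuring how much HuP-T4 cell growth is inhibited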
Description: SANGER: Inhibition of human HuP-T4 cell growth in a cell viability assay.

SK-HEP1 = assay: cells; assay type: functional, cell-based, Homo sapiens, SK-HEP-1; settings: Homo sapiens, SK-HEP1;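 note: cell viability readout used to quantify reduction in proliferation of human SK-HEP-1 cells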
Description: SANGER: Inhibition of human SK-HEP-1 cell growth in a cell viability assay.

CESS = assay: SANGER: Inhibition of human CESS cell growth in a cell viability assay.; assay type: functional, cell-based; settings: Homo sapiens, CESS
SNU-5 = assay: cells; assay type: functional, cell-based, Homo sapiens; settings: Homo sapiens, SNU-5;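 note: cell viability readout used to measure growth inhibition in human NCI-SNU-5 cells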
Description: SANGER: Inhibition of human NCI-SNU-5 cell growth in a cell viability assay.

CP50-MEL-B = assay: cells; assay type: functional, cell-based, Homo sapiens; settings: Homo sapiens, CP50-MEL-B;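 note: growth inhibition of the human cell line, measured with a cell viability read-out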
Description: SANGER: Inhibition of human CP50-MEL-B cell growth in a cell viability assay.

C8166 = assay: cells; assay type: functional, cell-based, Homo sapiens; settings: Homo sapiens, C8166;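 note: growth inhibition of human C8166 cells measured by a cell viability assay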
Description: SANGER: Inhibition of human C8166 cell growth in a cell viability assay.

LOUCY = assay: cells; assay type: functional, cell-based, Homo sapiens; settings: Homo sapiens, LOUCY;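 note: growth inhibition of human LOUCY cells, read out with a cell viability assay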
Description: SANGER: Inhibition of human LOUCY cell growth in a cell viability assay.

P12-Ichikawa = assay: cells; assay type: functional, cell-based, Homo sapiens; settings: Homo sapiens, P12-Ichikawa
A204 = assay: cells; assay type: functional, cell-based, Homo sapiens; settings: Homo sapiens, A204;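 note: growth inhibition of human A204 cells, read out with a cell viability assay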
Description: SANGER: Inhibition of human A204 cell growth in a cell viability assay.

COR-L279 = assay: SANGER: Inhibition of human COR-L279 cell growth in a cell viability assay.; assay type: functional, cell-based; settings: Homo sapiens, COR-L279
NCI-H2122 = assay: cells; assay type: functional, cell-based, Homo sapiens; settings: Homo sapiens, NCI-H2122;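 note: growth inhibition of the cells, read out with a cell viability assay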
Description: SANGER: Inhibition of human NCI-H2122 cell growth in a cell viability assay.

SCC-3 = assay: cells; assay type: functional, cell-based, Homo sapiens; settings: Homo sapiens, SCC-3;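 note: cell viability assay measuring inhibition of SCC-3 cell growth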
Description: SANGER: Inhibition of human SCC-3 cell growth in a cell viability assay.

Cc1cc([N+](=O)[O-])ccc1NS(=O)(=O)c1cc(Cl)ccc1Cl
IC50 (NCI-H441): 6.75 µM
IC50 (D-392MG): > 32 µM
IC50 (NCI-H2170): 1.44 µM
IC50 (BL-41): > 32 µM
IC50 (KINGS-1): > 32 µM
IC50 (RVH-421): 0.931 µM
IC50 (NCCIT): 13.4 µM
IC50 (EW-13): 6.04 µM
IC50 (KALS-1): 8.54 µM
IC50 (SK-N-DZ): > 32 µM
IC50 (BCPAP): 2.05 µM
IC50 (BFTC-909): 3.61 µM
IC50 (SW1463): 7.85 µM
IC50 (UACC-62): 0.256 µM
IC50 (LB1047-RCC): 6.74 µM
IC50 (KG-1): 7 µM
IC50 (HCE-4): 5.45 µM
IC50 (SK-MEL-30): 5.76 µM
IC50 (CAL-33): 3.56 µM
IC50 (L-363): 8.56 µM
IC50 (MG-63): 5.96 µM
IC50 (SNB-75): > 32 µM
IC50 (NCI-H358): 6.31 µM
IC50 (MC116): 3.14 µM
IC50 (M14): > 32 µM
IC50 (ES7): 11.1 µM
IC50 (NCI-H1623): > 32 µM
IC50 (ACHN): 4.6 µM
IC50 (SNU-423): 7.17 µM
IC50 (LB771-HNC): 2.24 µM
IC50 (SK-PN-DW): 11.6 µM
IC50 (KYSE-270): 3.03 µM
IC50 (NCI-H719): > 32 µM
IC50 (COLO-678): 10.9 µM
IC50 (HuP-T4): 1.68 µM
IC50 (SK-HEP1): 2.88 µM
IC50 (CESS): > 32 µM
IC50 (SNU-5): > 32 µM
IC50 (CP50-MEL-B): 1.03 µM
IC50 (C8166): 6.1 µM
IC50 (LOUCY): 20 µM
IC50 (P12-Ichikawa): 13.8 µM
IC50 (A204): 6.09 µM
IC50 (COR-L279): > 32 µM
IC50 (NCI-H2122): 1.17 µM
IC50 (SCC-3): > 32 µM

Oc1ccc2ccccc2c1SSc1c(O)ccc2ccccc12
IC50 (NCI-H441): > 32 µM
IC50 (D-392MG): > 32 µM
IC50 (NCI-H2170): > 32 µM
IC50 (BL-41): 3.1 µM
IC50 (KINGS-1): > 32 µM
IC50 (RVH-421): > 32 µM
IC50 (NCCIT): 29.8 µM
IC50 (EW-13): 4.2 µM
IC50 (KALS-1): > 32 µM
IC50 (SK-N-DZ): 9.2 µM
IC50 (BCPAP): > 32 µM
IC50 (BFTC-909): > 32 µM
IC50 (SW1463): > 32 µM
IC50 (UACC-62): > 32 µM
IC50 (LB1047-RCC): > 32 µM
IC50 (KG-1): > 32 µM
IC50 (HCE-4): > 32 µM
IC50 (SK-MEL-30): > 32 µM
IC50 (CAL-33): > 32 µM
IC50 (L-363): > 32 µM
IC50 (MG-63): > 32 µM
IC50 (SNB-75): > 32 µM
IC50 (NCI-H358): > 32 µM
IC50 (MC116): > 32 µM
IC50 (M14): > 32 µM
IC50 (ES7): > 32 µM
IC50 (NCI-H1623): > 32 µM
IC50 (ACHN): > 32 µM
IC50 (SNU-423): > 32 µM
IC50 (LB771-HNC): > 32 µM
IC50 (SK-PN-DW): 27.9 µM
IC50 (KYSE-270): > 32 µM
IC50 (NCI-H719): 12.9 µM
IC50 (COLO-678): > 32 µM
IC50 (HuP-T4): > 32 µM
IC50 (SK-HEP1): > 32 µM
IC50 (CESS): 12.4 µM
IC50 (SNU-5): > 32 µM
IC50 (CP50-MEL-B): > 32 µM
IC50 (C8166): > 32 µM
IC50 (LOUCY): > 32 µM
IC50 (P12-Ichikawa): > 32 µM
IC50 (A204): > 32 µM
IC50 (COR-L279): > 32 µM
IC50 (NCI-H2122): > 32 µM
IC50 (SCC-3): > 32 µM

N#Cc1c(O)c2c(-c3ccc(-c4ccccc4O)cc3)csc2[nH]c1=O
IC50 (NCI-H441): > 1.02 µM
IC50 (D-392MG): > 1.02 µM
IC50 (NCI-H2170): > 1.02 µM
IC50 (BL-41): 0.189 µM
IC50 (KINGS-1): > 1.02 µM
IC50 (RVH-421): > 1.02 µM
IC50 (NCCIT): > 1.02 µM
IC50 (EW-13): > 1.02 µM
IC50 (KALS-1): > 1.02 µM
IC50 (SK-N-DZ): 0.802 µM
IC50 (BCPAP): > 1.02 µM
IC50 (BFTC-909): > 1.02 µM
IC50 (SW1463): > 1.02 µM
IC50 (UACC-62): > 1.02 µM
IC50 (LB1047-RCC): > 1.02 µM
IC50 (KG-1): 0.409 µM
IC50 (HCE-4): > 1.02 µM
IC50 (SK-MEL-30): > 1.02 µM
IC50 (CAL-33): > 1.02 µM
IC50 (L-363): 0.211 µM
IC50 (MG-63): > 1.02 µM
IC50 (SNB-75): > 1.02 µM
IC50 (NCI-H358): > 1.02 µM
IC50 (MC116): 0.1 µM
IC50 (M14): > 1.02 µM
IC50 (ES7): > 1.02 µM
IC50 (NCI-H1623): > 1.02 µM
IC50 (ACHN): > 1.02 µM
IC50 (SNU-423): > 1.02 µM
IC50 (LB771-HNC): > 1.02 µM
IC50 (SK-PN-DW): > 1.02 µM
IC50 (KYSE-270): > 1.02 µM
IC50 (NCI-H719): > 1.02 µM
IC50 (COLO-678): > 1.02 µM
IC50 (HuP-T4): > 1.02 µM
IC50 (SK-HEP1): > 1.02 µM
IC50 (CESS): 0.101 µM
IC50 (SNU-5): 0.944 µM
IC50 (CP50-MEL-B): > 1.02 µM
IC50 (C8166): 0.0662 µM
IC50 (LOUCY): 0.0964 µM
IC50 (P12-Ichikawa): 0.489 µM
IC50 (A204): > 1.02 µM
IC50 (COR-L279): 0.253 µM
IC50 (NCI-H2122): > 1.02 µM
IC50 (SCC-3): > 1.02 µM
